Columns and labels:
[1] = test system: S. pneumoniae D39V; experiment: Bliss interaction score (quartile over a dose matrix) (fitness difference); higher = more antagonism (negative = synergy)
In short: (§1)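 The Bliss score subtracts expected fitness, the product of the single-drug fitness values, from observed fitness. Fitness is plate-normalised OD595 at entry into stationary phase, relative to the robust no-drug mean and capped at 1, with single-drug fitness inferred from combinations. Summaries are quartiles over technical, biological and donor/recipient replicates.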

[2] = test system: S. aureus DSM 20231; experiment: as above
In short: as §1

[3] = test system: B. subtilis 168; experiment: as above
In short: as §1

[4] = test system: S. aureus Newman; experiment: as above
In short: as §1

[5] = test system: S. pneumoniae D39V; experiment: fitness (endpoint OD595 vs no drug) (fraction); higher = more growth
In short: (§2)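 Fitness compares growth at the stationary-phase transition with the robust mean of no-drug control wells, as a ratio of optical densities. The ratio is capped at 1. Wells of 384-well plates held 30 µl, or 55 µl for S. pneumoniae, inoculated at OD595 0.01. Readings at OD595 every 30 min for 14 h at 37 °C were corrected against the first reading.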

[6] = test system: S. aureus DSM 20231; experiment: as above
In short: as §2

[7] = test system: B. subtilis 168; experiment: as above
In short: as §2

[8] = test system: S. aureus Newman; experiment: as above
In short: as §2
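Wherever Bliss interaction score (quartile over a dose matrix) is given: first quartile when negative (synergy) and third quartile when positive (antagonism).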

COc1ccc(C[C@H](N)C(=O)N[C@H]2[C@@H](O)[C@H](n3cnc4c(N(C)C)ncnc43)O[C@@H]2CO)cc1 [Puromycin] + CN(N=O)C(=O)N[C@@H](C=O)[C@@H](O)[C@H](O)[C@H](O)CO [Streptozotocin]
Settings	Bliss interaction score
[1]	0.0919
[2]	0.0762
[3]	0.0705
[4]	0.0523

fitness
Settings	first compound 0.39 µg/mL	first compound 0.78 µg/mL	first compound 1 µg/mL	first compound 1.56 µg/mL	first compound 2 µg/mL	first compound 4 µg/mL
[5], partner 1.2 µg/mL	–	–	0.913	–	0.942	0.8
[5], partner 2.4 µg/mL	–	–	0.943	–	0.935	0.806
[5], partner 4.8 µg/mL	–	–	0.969	–	0.926	0.749
[6], partner 0.15 µg/mL	0.894	0.887	–	0.937	–	–
[6], partner 0.3 µg/mL	0.863	0.857	–	0.812	–	–
[6], partner 0.6 µg/mL	0.714	0.772	–	0.705	–	–
[8], partner 0.15 µg/mL	0.912	0.835	–	0.871	–	–
[8], partner 0.3 µg/mL	0.737	0.7	–	0.706	–	–
[8], partner 0.6 µg/mL	0.595	0.534	–	0.559	–	–

fitness, one replicate
Settings	partner 0.15 µg/mL	partner 0.3 µg/mL	partner 0.6 µg/mL
[6], first compound 3.12 µg/mL	0.907	0.853	0.806
[6], first compound 6.24 µg/mL	0.706	0.6	0.549
[7], first compound 0.39 µg/mL	0.999	0.978	≥ 1
[7], first compound 0.78 µg/mL	≥ 1	≥ 1	0.981
[7], first compound 1.56 µg/mL	≥ 1	0.925	0.938

C[C@@H]1O[C@@H]1P(=O)(O)O [Fosfomycin] + CN(N=O)C(=O)N[C@@H](C=O)[C@@H](O)[C@H](O)[C@H](O)CO [Streptozotocin]
Settings	Bliss interaction score
[1]	-0.0567
[2]	-0.0585
[3]	-0.108
[4]	-0.0994

fitness
Settings	partner 0.15 µg/mL	partner 0.3 µg/mL	partner 0.6 µg/mL	partner 1.2 µg/mL	partner 2.4 µg/mL	partner 4.8 µg/mL
[5], first compound 1.25 µg/mL	–	–	–	0.898	0.934	0.952
[5], first compound 2.5 µg/mL	–	–	–	0.899	0.923	0.952
[5], first compound 5 µg/mL	–	–	–	0.732	0.703	0.747
[6], first compound 0.781 µg/mL	0.717	0.627	0.549	–	–	–
[6], first compound 1.562 µg/mL	0.59	0.533	0.509	–	–	–
[6], first compound 3.124 µg/mL	0.476	0.441	0.292	–	–	–
[7], first compound 1.562 µg/mL	0.682	0.688	0.69	–	–	–
[7], first compound 3.124 µg/mL	0.609	0.588	0.579	–	–	–
[7], first compound 6.248 µg/mL	0.432	0.42	0.435	–	–	–
[8], first compound 0.781 µg/mL	0.526	0.501	0.462	–	–	–
[8], first compound 1.562 µg/mL	0.491	0.455	0.342	–	–	–
[8], first compound 3.124 µg/mL	0.129	0.146	0.0801	–	–	–

COc1cccc2c1C(=O)c1c(O)c3c(c(O)c1C2=O)C[C@@](O)(C(=O)CO)C[C@@H]3O[C@H]1C[C@H](N)[C@H](O)[C@H](C)O1 [Doxorubicin] + CCN(CC)CCOC(=O)c1ccc(N)cc1 [Procaine]
Settings	Bliss interaction score
[1]	0.07
[2]	-0.0642
[3]	0.095
[4]	-0.058

fitness
Settings	first compound 0.25 µg/mL	first compound 0.5 µg/mL	first compound 0.625 µg/mL	first compound 1 µg/mL	first compound 1.25 µg/mL	first compound 2.5 µg/mL
[5], partner 85.5 µg/mL	0.988	≥ 1	–	0.917	–	–
[5], partner 171 µg/mL	0.963	0.98	–	0.892	–	–
[5], partner 342 µg/mL	0.97	0.996	–	0.855	–	–
[6], partner 85.5 µg/mL	–	–	0.829	–	0.823	0.748
[6], partner 171 µg/mL	–	–	0.926	–	0.916	0.832
[6], partner 342 µg/mL	–	–	0.898	–	0.866	0.804
[7], partner 85.5 µg/mL	–	–	0.934	–	0.89	0.672
[7], partner 171 µg/mL	–	–	0.961	–	0.894	0.654
[7], partner 342 µg/mL	–	–	0.887	–	0.879	0.702
[8], partner 85.5 µg/mL	–	–	0.801	–	0.823	0.745
[8], partner 171 µg/mL	–	–	0.79	–	0.835	0.752
[8], partner 342 µg/mL	–	–	0.815	–	0.747	0.764

COc1ccc(C[C@H](N)C(=O)N[C@H]2[C@@H](O)[C@H](n3cnc4c(N(C)C)ncnc43)O[C@@H]2CO)cc1 [Puromycin] + CN[C@@H]1[C@H](O)[C@H](NC)[C@H]2O[C@@]3(O)C(=O)C[C@@H](C)O[C@H]3O[C@@H]2[C@H]1O [Spectinomycin]
Settings	Bliss interaction score
[1]	0.0718
[2]	0.0575
[3]	0.0392
[4]	0.0745

fitness
Settings	first compound 0.39 µg/mL	first compound 0.78 µg/mL	first compound 1 µg/mL	first compound 1.56 µg/mL	first compound 2 µg/mL	first compound 4 µg/mL
[5], partner 4 µg/mL	–	–	0.931	–	0.951	0.772
[5], partner 8 µg/mL	–	–	0.877	–	0.892	0.728
[6], partner 4 µg/mL	0.959	0.943	–	0.965	–	–
[6], partner 8 µg/mL	0.957	0.998	–	0.956	–	–
[6], partner 16 µg/mL	0.943	0.884	–	0.888	–	–
[7], partner 2 µg/mL	0.951	0.94	–	0.979	–	–
[7], partner 4 µg/mL	0.948	0.952	–	0.963	–	–
[7], partner 8 µg/mL	0.859	0.881	–	0.848	–	–
[8], partner 4 µg/mL	0.912	0.922	–	0.964	–	–
[8], partner 8 µg/mL	0.962	0.95	–	0.937	–	–
[8], partner 16 µg/mL	0.914	0.904	–	0.873	–	–

one replicate
Settings	fitness
[5], first compound 1 µg/mL, partner 16 µg/mL	0.867
[5], first compound 2 µg/mL, partner 16 µg/mL	0.863
[5], first compound 4 µg/mL, partner 16 µg/mL	0.613
[6], first compound 0.39 µg/mL, partner 32 µg/mL	0.741
[6], first compound 0.39 µg/mL, partner 64 µg/mL	0.11
[6], first compound 0.78 µg/mL, partner 32 µg/mL	0.802
[6], first compound 0.78 µg/mL, partner 64 µg/mL	0.172
[6], first compound 1.56 µg/mL, partner 32 µg/mL	0.757
[6], first compound 1.56 µg/mL, partner 64 µg/mL	0.142
[6], first compound 3.12 µg/mL, partner 4 µg/mL	0.923
[6], first compound 3.12 µg/mL, partner 8 µg/mL	0.948
[6], first compound 3.12 µg/mL, partner 16 µg/mL	0.794
[6], first compound 6.24 µg/mL, partner 4 µg/mL	0.629
[6], first compound 6.24 µg/mL, partner 8 µg/mL	0.347
[6], first compound 6.24 µg/mL, partner 16 µg/mL	0.183
[8], first compound 0.39 µg/mL, partner 32 µg/mL	0.664
[8], first compound 0.39 µg/mL, partner 64 µg/mL	0.15
[8], first compound 0.78 µg/mL, partner 32 µg/mL	0.618
[8], first compound 0.78 µg/mL, partner 64 µg/mL	0.0783
[8], first compound 1.56 µg/mL, partner 32 µg/mL	0.569
[8], first compound 1.56 µg/mL, partner 64 µg/mL	0.0656
